Experiments:
[1] = in the rats, reported in a literature; cited from earlier work
[2] = tested on: HCV 1b-genotype replicon Con1b; assay: HCV replicon luciferase assay, HCV-1b replicon (Huh7-Con1b, firefly luciferase); type: cell-based; details: Hepatitis C virus, Huh7-Con1b cells, 72 hours
Text: (§1) In brief, three stably-transfected cell lines containing different HCV genotypes of replicons were used to test activity of the compounds in inhibiting the HCV replication.
(§2) A Huh7-Con1b cell line contained an HCV 1b-genotype replicon Con1b and a reporter gene of firefly luciferase. An Huh7-H77 and an Huh7-JFH1 cell line both contained a reporter gene of renilla luciferase and respectively contained an HCV 1a-genetype replicon H77 and an HCV 2a-genetype replicon JFH1. The replication level of HCV in host cells can be characterized by the expression of the firefly luciferase gene or the renilla luciferase gene. The effect of the compounds described herein on the HCV replication can be evaluated through a chemiluminescence detection of the expression of the above two luciferase genes. Meanwhile, the CC50 value of each Huh7 cell line was measured using a CellTiter GLO kit to evaluate the toxicity of the compounds.
(§3) The compounds described herein were subjected to three-fold serial dilutions using a Bravo liquid treatment system to obtain a total of 11 concentration points prior to cell plating. The prepared compounds were added to cell culture plates using an Echo 550 system. The Huh7-H77 and the Huh7-JFH1 cells were inoculated into the 96-well plate added with the compounds at an amount of 10000 cells per well. The Huh7-Con1b and the Huh7 cells were inoculated into the 384-well plate added with the compounds at an amount of 5000 cells per well. The cell culture plates were incubated in a CO2 incubator (5%) at 37° C. for 72 hours.
The 384-well plate was taken out of the incubator and cooled at room temperature for 30 minutes. After removing the medium, each well was added with 50 μL of DPBS (Dulbecco's Phosphate Buffered Saline) and then added with 50 μL of a Britelit plus reagent (PerkinElmer Inc.). Then the 384-well plate was placed in a shaker at a shaking rate of 1000 rpm at room temperature for 1 minute. Finally, the 384-well plate was read using an Envision Plate Reader at a signal accumulation time of per well of 0.1 s.

[3] = tested on: HCV 1a-genetype replicon H77; assay: HCV replicon luciferase assay, HCV-1a replicon (Huh7-H77, renilla luciferase); type: cell-based; details: Hepatitis C virus, Huh7-H77 cells, 72 hours
Text: (§4) The HCV replicon was first reported in Science. 1999 Jul. 2; 285 (5424), 110-3. The HCV replicon system has been one of the most important tools to investigate the RNA replication, pathogenicity and virus persistence of HCV. For example, the replicon has been successfully used to verify the 5′-NCR minimum region essential for HCV RNA replication, in addition, the HCV replicon system has been successfully used as an evaluation model for antiviral drugs.
as §1, §2, §3
(§5) The 96-well plate was taken out of the incubator and cooled at room temperature for 30 minutes. After removing the medium, each well was added with 30 μL of a diluted Promega lysate (diluted using pure water in a volume ratio of 1:4). The 96-well plate was placed in a shaker at a shaking rate of 1000 rpm at room temperature for 15 minutes. Each well was added with 100 μL of a diluted Premega luciferase reagent (Promega Inc.) (diluted using a substrate buffer in a volume ratio of 1:99) and then, the 96-well plate was immediately read using an Envision Plate Reader at a signal accumulation time of per well of 0.1 s.

[4] = tested on: HCV 2a-genetype replicon JFH1; assay: HCV replicon luciferase assay, HCV-2a replicon (Huh7-JFH1, renilla luciferase); type: cell-based, hepatitis C virus (HCV); details: Huh7-JFH1 cells
Text: as §4, §1, §2, §3, §5

[5] = CC50 by CellTiter-GLO kit, HCV-1b replicon cell; type: cell-based; details: human
Text: as §2, §3
(§6) The CellTiter-GLO reagent was heated to room temperature. The 384-well plate plated with the Huh 7 cells was transferred from the incubator and cooled at room temperature for 20 minutes. Each well was added with 50 μL of the CellTiter-GLO reagent (Promega Inc.), and then the 384-well plate was shaken for 2 minutes. The 384-well plate was subsequently incubated in a dark environment at room temperature for 10 minutes. After the incubation, the 384-well plate was read using an Envision Plate Reader at a signal accumulation time of per well of 0.1 s.

[6] = CC50 by CellTiter-GLO kit, HCV-1a replicon cell; type: cell-based; details: human
Text: as §2, §3, §6

[7] = CC50 by CellTiter-GLO kit, HCV-2a replicon cell; type: cell-based; details: human
Text: as §2, §3, §6

| SMILES | bioavailability [1] [%] | EC50 [2] [nM] | EC50 [3] [nM] | EC50 ([4]; Hepatitis C virus, 72 h) [nM] | CC50 at 72 h [5] [nM] | CC50 at 72 h [6] [nM] | CC50 at 72 h [7] [nM] | EC50 ([4]; 72 hours) [nM] |
| --- | --- | --- | --- | --- | --- | --- | --- | --- |
| COC(=O)N[C@H](C(=O)N1CCC[C@H]1C(=O)Nc1ccc([C@@H]2CC[C@@H](c3ccc(NC(=O)[C@@H]4CCCN4C(=O)[C@@H](NC(=O)OC)C(C)C)cc3)N2c2ccc(C(C)(C)C)cc2)cc1)C(C)C [ABT-267] | 100 |  |  |  |  |  |  |  |
| COC(=O)N[C@H](C(=O)N1CCC[C@H]1C(=O)Nc1ccc2c(c1)O[C@@H](c1cc(F)c(F)c(F)c1)n1c-2cc2cc(NC(=O)[C@@H]3CCCN3C(=O)[C@@H](NC(=O)OC)C(C)C)ccc21)C(C)C [PA6032] |  | 0.00304 | 0.0168 | 0.147 | > 100 | > 100 | > 100 |  |
| COC(=O)N[C@H](C(=O)N1CCC[C@H]1C(=O)Nc1ccc2c(c1)O[C@@H](c1cc(F)cc(F)c1)n1c-2cc2cc(NC(=O)[C@@H]3CCCN3C(=O)[C@@H](NC(=O)OC)C(C)C)ccc21)C(C)C [PA6016-B] |  | 0.00434 | 0.018 | 0.0615 | > 100 | > 100 | > 100 |  |
| COC(=O)N[C@H](C(=O)N1C[C@H](F)C[C@H]1C(=O)Nc1ccc2c(c1)OC(c1cc(F)cc(F)c1)n1c-2cc2cc(NC(=O)[C@@H]3C[C@H](F)CN3C(=O)[C@@H](NC(=O)OC)C(C)C)ccc21)C(C)C (some centres unmarked) [PA6018] |  | 0.00295 | 0.0351 | 0.102 | > 100 | > 100 | > 100 |  |
| COC(=O)N[C@H](C(=O)N1CC2(CC2)C[C@H]1C(=O)Nc1ccc2c(c1)OC(c1ccccc1)n1c-2cc2cc(NC(=O)[C@@H]3CC4(CC4)CN3C(=O)[C@@H](NC(=O)OC)C(C)C)ccc21)C(C)C (some centres unmarked) [PA6002] |  | 0.005 | 0.03 | 0.148 | > 100 | > 100 | > 100 |  |
| COC(=O)N[C@H](C(=O)N1CCC[C@H]1C(=O)Nc1ccc2c(c1)O[C@H](c1ccccc1)n1c-2cc2cc(NC(=O)[C@@H]3CCCN3C(=O)[C@@H](NC(=O)OC)C(C)C)ccc21)C(C)C [PA6001-A] |  | 0.00814 | 2.94 | 0.0546 | > 100 | > 100 | > 100 |  |
| COC(=O)N[C@H](C(=O)N1CCC[C@H]1C(=O)Nc1ccc2c(c1)O[C@@H](c1c(F)c(F)c(F)c(F)c1F)n1c-2cc2cc(NC(=O)[C@@H]3CCCN3C(=O)[C@@H](NC(=O)OC)C(C)C)ccc21)C(C)C [PA6030] |  | 0.00315 | 0.0763 | 0.207 | > 100 | > 100 | > 100 |  |
| COC(=O)N[C@H](C(=O)N1CC(F)(F)C[C@H]1C(=O)Nc1ccc2c(c1)OC(c1ccccc1)n1c-2cc2cc(NC(=O)[C@@H]3CC(F)(F)CN3C(=O)[C@@H](NC(=O)OC)C(C)C)ccc21)C(C)C (some centres unmarked) [PA6011] |  | 0.00118 | 0.0476 | 0.312 | > 100 | > 100 | > 100 |  |
| COC(=O)N[C@H](C(=O)N1C[C@H](F)C[C@H]1C(=O)Nc1ccc2c(c1)OC(c1ccccc1)n1c-2cc2cc(NC(=O)[C@@H]3C[C@H](F)CN3C(=O)[C@@H](NC(=O)OC)C(C)C)ccc21)C(C)C (some centres unmarked) [PA6010] |  | 0.00449 | 0.107 | 0.2 | > 100 | > 100 | > 100 |  |
| COC(=O)N[C@H](C(=O)N1CCC[C@H]1C(=O)Nc1ccc2c(c1)OC(c1cc(F)cc(F)c1)n1c-2cc2cc(NC(=O)[C@@H]3CCCN3C(=O)[C@@H](NC(=O)OC)C(C)C)ccc21)C(C)C (some centres unmarked) [PA6016] |  | 0.00365 | 0.0433 | 0.04 to 0.05 | > 100 | > 100 | > 100 | 0.0499 |
| COC(=O)N[C@H](C(=O)N1CC2(CC2)C[C@H]1C(=O)Nc1ccc2c(c1)OC(c1cc(F)cc(F)c1)n1c-2cc2cc(NC(=O)[C@@H]3CC4(CC4)CN3C(=O)[C@@H](NC(=O)OC)C(C)C)ccc21)C(C)C (some centres unmarked) [PA6017] |  | 0.00236 | 0.0268 | 0.743 | > 100 | > 100 | > 100 |  |
| COC(=O)N[C@H](C(=O)N1CCC[C@H]1C(=O)Nc1ccc2c(c1)OC(c1ccccc1)n1c-2cc2cc(NC(=O)[C@@H]3CCCN3C(=O)[C@@H](NC(=O)OC)C(C)C)ccc21)C(C)C (some centres unmarked) [PA6001] |  | 0.02 | 1.57 | 0.059 | > 100 | > 100 | > 100 |  |
| COC(=O)N[C@H](C(=O)N1CCC[C@H]1C(=O)Nc1ccc2c(c1)O[C@@H](c1c(F)c(F)cc(F)c1F)n1c-2cc2cc(NC(=O)[C@@H]3CCCN3C(=O)[C@@H](NC(=O)OC)C(C)C)ccc21)C(C)C [PA6031] |  | 0.0023 | 0.0369 | 0.04 to 0.05 | > 100 | > 100 | > 100 | 0.0401 |
| COC(=O)N[C@H](C(=O)N1CCC[C@H]1C(=O)Nc1ccc2c(c1)O[C@@H](c1ccccc1)n1c-2cc2cc(NC(=O)[C@@H]3CCCN3C(=O)[C@@H](NC(=O)OC)C(C)C)ccc21)C(C)C [PA6001-B] |  | 0.0068 | 0.0593 | 0.0626 | > 100 | > 100 | > 100 |  |
| COC(=O)N[C@H](C(=O)N1CC(F)(F)C[C@H]1C(=O)Nc1ccc2c(c1)OC(c1cc(F)cc(F)c1)n1c-2cc2cc(NC(=O)[C@@H]3CC(F)(F)CN3C(=O)[C@@H](NC(=O)OC)C(C)C)ccc21)C(C)C (some centres unmarked) [PA6019] |  |  | 0.0534 | 0.234 | > 100 | > 100 | > 100 |  |

From patent US10640515B2, “Hepatitis C virus inhibitor and uses thereof” (priority 2016, dated 2020)
